What is called IC50 is the midpoint of a concentration-inhibition curve. Lower therefore signals greater potency.

For experiment [1], the target named is T1, BRD4 BD1 (Homo sapiens, UniProt O60885).
T1 construct: HEK293 cells were transfected using NanoLuc-BRD4-BD1 or NanoLuc-BRD4-BD2 fusion vectors
The experiment can be described thus: NanoBRET bromodomain assay, NanoLuc-BRD4-BD1 in HEK293 cells. The experiment is classed as binding. The protocol:
Exemplary compounds of the disclosure are active against BRD4 BD2 and selective over BRD4 BD1. BRD4 is a representative example of the BET family, as the binding sites of all BET family members are structurally similar. […] IC50s and fold selectivity's are determined as described below and are represented in Table 1.
(§1) Plates were then incubated at 37° C.+5% CO2 incubator for 2 hours.
(§2) Fold Selectivity Calculated (IC50 BD1/IC50 BD2).

Experiment [2] concerns the target T2, BRD4 BD2 (Homo sapiens, UniProt O60885).
T2 construct: HEK293 cells were transfected using NanoLuc-BRD4-BD1 or NanoLuc-BRD4-BD2 fusion vectors
Kind of experiment: NanoBRET bromodomain assay, NanoLuc-BRD4-BD2 in HEK293 cells. The experiment is classed as binding. The note with it: for Fold Selectivity BRD4 BD1/BD2: IC50 BD1/IC50 BD2, qualitative if an IC50 is at the upper limit. How it is done:
as §1, §2

For the molecule `COCCOc1cccc(-c2cn(C)c(=O)cc2-c2cn(C)c(=O)c3[nH]c(-c4ccc(F)cc4F)cc23)c1` [Example 53, 2-(2,4-difluorophenyl)-4-(5-(3-(2-methoxyethoxy)phenyl)-1-methyl-2-oxo-1,2-dihydropyridin-4-yl)-6-methyl-1,6-dihydro-7H-pyrrolo[2,3-c]pyridin-7-one], the IC50 in experiment [1] is more than 1000 nM. Besides, in experiment [2], the half-inhibitory concentration (IC50) was less than 10 nM and the “Fold Selectivity BRD4 BD1/BD2” value is reported as “xxxx (Fold >1000)”.

On to `Cc1cccc(C)c1Oc1cn(C)c(=O)cc1-c1cn(C)c(=O)c2[nH]c(-c3ccc(OC(F)F)cc3F)cc12` [Example 97], for which the IC50 was more than 1000 nM in experiment [1] and 10 to 50 nM in experiment [2]. The “Fold Selectivity BRD4 BD1/BD2” value in experiment [2] was “xxx (Fold >200 and ≤1000)”.

Regarding `Cc1cccc(C)c1Oc1cn(C2CC2)c(=O)cc1-c1cn(C)c(=O)c2[nH]c(-c3cccc(F)c3F)cc12` [Example 87], the 50% inhibitory concentration (IC50) in experiment [1] was more than 1000 nM. Also, in experiment [2], the IC50 was more than 1000 nM; the “Fold Selectivity BRD4 BD1/BD2” value is “— (Fold ≥0 and ≤2)”.

As to `Cn1cc(-c2ccccc2)c(-c2cn(C)c(=O)c3[nH]c(-c4cccc(F)c4F)cc23)cc1=O` [Example 90], the IC50 is more than 1000 nM in experiment [1] and 10 to 50 nM in experiment [2]. The “Fold Selectivity BRD4 BD1/BD2” value in experiment [2] is “xxx (Fold >200 and ≤1000)”.

For the molecule `Cn1cc(-c2cc(=O)n(CCN3CCOCC3)cc2-c2ccccc2)c2cc(-c3cnn(C(F)(F)F)c3)[nH]c2c1=O` [Example 62, 6-methyl-4-(1-(2-morpholinoethyl)-2-oxo-5-phenyl-1,2-dihydropyridin-4-yl)-2-(1-(trifluoromethyl)-1H-pyrazol-4-yl)-1,6-dihydro-7H-pyrrolo[2,3-c]pyridin-7-one], the IC50 in experiment [1] was more than 1000 nM; in experiment [2], less than 10 nM. Also, the “Fold Selectivity BRD4 BD1/BD2” value in experiment [2] is “xxxx (Fold >1000)”.

With `Cn1cc(-c2cc(=O)n(C3CC(O)C3)cc2-c2ccccc2)c2cc(-c3cnn(C(F)(F)F)c3)[nH]c2c1=O` (stereo not drawn) [Example 64, 4-(1-(3-hydroxycyclobutyl)-2-oxo-5-phenyl-1,2-dihydropyridin-4-yl)-6-methyl-2-(1-(trifluoromethyl)-1H-pyrazol-4-yl)-1,6-dihydro-7H-pyrrolo[2,3-c]pyridin-7-one], the IC50 fell in the range of 500 to 1000 nM in experiment [1] and 50 to 200 nM in experiment [2]. Further, the “Fold Selectivity BRD4 BD1/BD2” value in experiment [2] is “x (Fold >2 and ≤50)”.

Take `Cc1cccc(C)c1Oc1cn(C)c(=O)cc1-c1cn(C)c(=O)c2[nH]c(-c3ccccn3)cc12` [Example 38, 4-(5-(2,6-dimethylphenoxy)-1-methyl-2-oxo-1,2-dihydropyridin-4-yl)-6-methyl-2-(pyridin-2-yl)-1,6-dihydro-7H-pyrrolo[2,3-c]pyridin-7-one]: the IC50 in experiment [1] was more than 1000 nM. In addition, in experiment [2], the IC50 was 10 to 50 nM; the “Fold Selectivity BRD4 BD1/BD2” value was “xxx (Fold >200 and ≤1000)”.

For the molecule `COCCn1cc(-c2ccccc2)c(-c2cn(C)c(=O)c3[nH]c(-c4cnn(C(F)(F)F)c4)cc23)cc1=O` [Example 52, 4-(1-(2-methoxyethyl)-2-oxo-5-phenyl-1,2-dihydropyridin-4-yl)-6-methyl-2-(1-(trifluoromethyl)-1H-pyrazol-4-yl)-1,6-dihydro-7H-pyrrolo[2,3-c]pyridin-7-one], the IC50 in experiment [1] is more than 1000 nM. Further, in experiment [2], the IC50 was less than 10 nM and the “Fold Selectivity BRD4 BD1/BD2” value was “xxxx (Fold >1000)”.

As to `Cn1cc(-c2c(-c3ccccc3)cn(CCO)c(=O)c2C(F)(F)F)c2cc(-c3cnn(C(F)(F)F)c3)[nH]c2c1=O` [Example 68, 4-(1-(2-hydroxyethyl)-2-oxo-5-phenyl-3-(trifluoromethyl)-1,2-dihydropyridin-4-yl)-6-methyl-2-(1-(trifluoromethyl)-1H-pyrazol-4-yl)-1,6-dihydro-7H-pyrrolo[2,3-c]pyridin-7-one], the IC50 in experiment [1] is more than 1000 nM. In experiment [2], the IC50 lay within 200 to 1000 nM; the “Fold Selectivity BRD4 BD1/BD2” value was “x (Fold >2 and ≤50)”.

Consider `COc1cccc(-c2cc3c(-c4cc(=O)n(C5CC5)cc4Oc4c(C)cccc4C)cn(C)c(=O)c3[nH]2)c1F` [Example 40, 4-(1-cyclopropyl-5-(2,6-dimethylphenoxy)-2-oxo-1,2-dihydropyridin-4-yl)-2-(2-fluoro-3-methoxyphenyl)-6-methyl-1,6-dihydro-7H-pyrrolo[2,3-c]pyridin-7-one], for which, in experiment [1], the IC50 is more than 1000 nM. Also, in experiment [2], the IC50 lay in the range of 10 to 50 nM; the “Fold Selectivity BRD4 BD1/BD2” value is “xxx (Fold >200 and ≤1000)”.

For the molecule `Cn1cc(-c2cccc(OCCO)c2)c(-c2cn(C)c(=O)c3[nH]c(-c4ccc(F)cc4F)cc23)cc1=O` [Example 76], the IC50 in experiment [1] was more than 1000 nM. Moreover, in experiment [2], the IC50 lay in the range of 10 to 50 nM; the “Fold Selectivity BRD4 BD1/BD2” value was “xxx (Fold >200 and ≤1000)”.

With `COc1ccc(-c2cn(C)c(=O)cc2-c2cn(C)c(=O)c3[nH]c(-c4cc(C)nc(C)c4)cc23)cc1.Cl` [Example 31, 2-(2,6-dimethylpyridin-4-yl)-4-(5-(4-methoxyphenyl)-1-methyl-2-ox0-1,2-dihydropyridin-4-yl)-6-methyl-1,6-dihydro-7H-pyrrolo[2,3-c]pyridin-7-one hydrogen chloride], the IC50 was 500 to 1000 nM in experiment [1] and less than 10 nM in experiment [2]. Further, in experiment [2], the “Fold Selectivity BRD4 BD1/BD2” value was “xxx (Fold >200 and ≤1000)”.

The molecule `COCc1cccc(-c2cn(C)c(=O)cc2-c2cn(C)c(=O)c3[nH]c(-c4cnn(C(F)(F)F)c4)cc23)c1` [Example 7, 4-(5-(3-(methoxymethyl)phenyl)-1-methyl-2-oxo-1,2-dihydropyridin-4-yl)-6-methyl-2-(1-(trifluoromethyl)-1H-pyrazol-4-yl)-1,6-dihydro-7H-pyrrolo[2,3-c]pyridin-7-one] registered an IC50 in experiment [1] of more than 1000 nM. In experiment [2], the IC50 was less than 10 nM and the “Fold Selectivity BRD4 BD1/BD2” value is given as “xxxx (Fold >1000)”.

Turning to `Cc1cccc(C)c1Oc1cn(C)c(=O)cc1-c1cn(C)c(=O)c2[nH]c(-c3cn(CC(F)(F)F)nc3C)cc12` [Example 15, 4-(5-(2,6-dimethylphenoxy)-1-methyl-2-oxo-1,2-dihydropyridin-4-yl)-6-methyl-2-(3-methyl-1-(2,2,2-trifluoroethyl)-1H-pyrazol-4-yl)-1,6-dihydro-7H-pyrrolo[2,3-c]pyridin-7-one], the IC50 in experiment [1] lay within 500 to 1000 nM. In addition, in experiment [2], the IC50 lay in the range of 10 to 50 nM; the “Fold Selectivity BRD4 BD1/BD2” value was “xx (Fold >50 and ≤200)”.

With `Cc1nn(C2COC2)cc1-c1cc2c(-c3cc(=O)n(C)cc3-c3ccccc3)cn(C)c(=O)c2[nH]1` [Example 91], the IC50 is more than 1000 nM in experiment [1] and 10 to 50 nM in experiment [2]. For the same molecule, in experiment [2], the “Fold Selectivity BRD4 BD1/BD2” value is “xx (Fold >50 and ≤200)”.

In experiment [1], `CC(C)c1cc(-c2cc3c(-c4cc(=O)n(C)cc4-c4ccccc4)cn(C)c(=O)c3[nH]2)ccc1F` [Example 71] registered an IC50 of more than 1000 nM. In addition, in experiment [2], the IC50 is 50 to 200 nM; the “Fold Selectivity BRD4 BD1/BD2” value is “xx (Fold >50 and ≤200)”.

Regarding `Cn1cc(-c2cccc(CN3CCNCC3)c2)c(-c2cn(C)c(=O)c3[nH]c(-c4ccc(F)cc4F)cc23)cc1=O` [Example 73], the IC50 in experiment [1] is more than 1000 nM; in experiment [2] it was 200 to 1000 nM. Further, in experiment [2], the “Fold Selectivity BRD4 BD1/BD2” value was “x (Fold >2 and ≤50)”.

For the molecule `COc1cccc(-c2cc3c(-c4cc(=O)n(C5CC5)cc4-c4ccccc4)cn(C)c(=O)c3[nH]2)c1F` [Example 50, 4-(1-cyclopropyl-2-oxo-5-phenyl-1,2-dihydropyridin-4-yl)-2-(2-fluoro-3-methoxyphenyl)-6-methyl-1,6-dihydro-7H-pyrrolo[2,3-c]pyridin-7-one], the IC50 in experiment [1] is more than 1000 nM. In experiment [2], the IC50 was less than 10 nM and the “Fold Selectivity BRD4 BD1/BD2” value was “xxxx (Fold >1000)”.
